Assay results taken from patent publication EP3643303A1, “COMPOUNDS FOR USE IN THE TREATMENT OR PREVENTION OF FIBROTIC DISEASES; PHARMACEUTICAL, COSMETIC COMPOSITIONS AND USES THEREOF” (InnovativeHealth Group SL, priority 2018, dated 2020).

Key:
[1] = test system: activated hepatic stellate cells; settings: Lim et al. 2011; cited from earlier work
[2] = target: TRPV-1 (Homo sapiens, UniProt Q8NER1); experiment: Capsaicin-induced intracellular calcium mobilization (Fura-2) in HEK-293T-TRPV1 cells; type: cell-based; parameters: expressed in transfected cells; host or cells: HEK-293T; settings: capsaicin 1 µM; Fura-2 AM; Figure 2A
Protocol: Next, the effect of (+)CBD and (-)CBD on TRPV-1 activity was investigated. TRPV-1 is an ionotropic receptor that upon activation by a specific agonist such as capsaicin mobilize intracellular calcium in TRPV-1 expressing cells. Moreover, TRPV-1-induced calcium exerts cytotoxicity in non-neuronal cells overexpressing this receptor. To explore the effect of (+)CBD on calcium mobilization HEK-293T-TRPV1 cells were cultured in 96-well plates (10^3 cells/well) and loaded with Fura 2 acetyoxymethyl ester (Fura-2 AM; 8 µM) (Molecular Probes, Carlsbad, CA) in Dulbecco's modified Eagle's medium (containing 110 mg/l pyruvate) supplemented with 10% FBS and incubated (40 min, 37°C, 5% CO2). The cells were preincubated with (+)CBD and after 15 sec treated with capsaicin (1µM). Changes in intracellular free calcium concentration (intracellular [Ca^2+]free) were measured by digital microscopy equipped with ratiometric recording of single cells. (BD Pathway 855 Bioimager). The field of cells was monitored by sequential dual excitation, 352 and 380 nm, and the analysis of the image ratios used methods described previously to calculate changes in intracellular [Ca^2+]free. The ratio images were acquired every 6 s. At the end of experiments, the cells were exposed to ionomycin (30 s, 1 µM) to obtain a maximal response.

[3] = test system: NHDFs; experiment: Fibroblast migration scratch (wound healing) assay in NHDFs; type: cell-based, human; settings: Figure 6
Protocol: Migration of skin fibroblast plays a crucial role not only in normal wound healing but also in fibrotic diseases. To further analyze this point, it was tested if the anti-fibrotic effect of (-)CBD could be associated with reduced fibroblast migration. To investigate this possibility, the effect of (-)CBD on TGFβ-induced wound healing was investigated. NHDFs (2x10^3 cells) were seeded in complete DMEM in a 96-well Essen ImageLock plates (Essen BioScience). When cells reached confluence, wound scratches were made using the 96-pin WoundMaker (Essen BioScience). Then, culture medium was replaced by DMEM supplemented with 1% antibiotics and with mitomycin C (10 ng/ml) to block cell proliferation. (-)CBD and TGFβ1 10 ng/ml were added in parallel. Wound healing activity was analyzed using IncuCyte HD system by taking images every 3 h for 48 h and the percentage of wound confluence calculated with the IncuCyte software.

Sequence of TRPV-1 (Q8NER1 whole entry): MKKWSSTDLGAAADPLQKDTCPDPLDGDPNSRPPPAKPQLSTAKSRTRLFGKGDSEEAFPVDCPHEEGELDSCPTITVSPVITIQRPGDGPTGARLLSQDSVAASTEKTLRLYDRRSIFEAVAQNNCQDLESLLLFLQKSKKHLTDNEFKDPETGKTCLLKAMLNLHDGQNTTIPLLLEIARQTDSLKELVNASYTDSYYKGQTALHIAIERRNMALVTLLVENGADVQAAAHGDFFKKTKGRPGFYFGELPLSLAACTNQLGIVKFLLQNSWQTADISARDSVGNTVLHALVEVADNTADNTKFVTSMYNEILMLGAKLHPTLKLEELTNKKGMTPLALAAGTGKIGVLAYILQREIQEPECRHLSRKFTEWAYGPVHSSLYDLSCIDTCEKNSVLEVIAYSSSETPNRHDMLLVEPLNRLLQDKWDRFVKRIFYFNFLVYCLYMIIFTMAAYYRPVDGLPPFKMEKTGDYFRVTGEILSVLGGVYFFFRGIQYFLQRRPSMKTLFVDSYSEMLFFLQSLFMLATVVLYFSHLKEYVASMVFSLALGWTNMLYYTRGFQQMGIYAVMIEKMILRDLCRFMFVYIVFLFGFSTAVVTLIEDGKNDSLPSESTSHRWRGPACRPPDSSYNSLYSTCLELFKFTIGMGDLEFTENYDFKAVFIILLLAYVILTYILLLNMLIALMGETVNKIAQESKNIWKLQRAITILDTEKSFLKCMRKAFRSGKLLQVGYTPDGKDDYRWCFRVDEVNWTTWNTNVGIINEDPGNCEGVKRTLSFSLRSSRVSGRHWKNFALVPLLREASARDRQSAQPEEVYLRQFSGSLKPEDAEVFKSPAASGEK

C=C(C)[C@@H]1CCC(C)=C[C@H]1c1c(O)cc(CCCCC)cc1O [(-)CBD, 2-[(1R,6R)-3-methyl-6-prop-1-en-2-ylcyclohex-2-en-1-yl]-5-pentylbenzene-1,3-diol]
cell death of activated hepatic stellate cells [1]: induces cell death
capsaicin-induced calcium mobilization [2]: prevent capsaicin-induced calcium mobilization
wound closure induced by TGFβ1 ([3]; TGFβ1 10 ng/ml, 48 h, concentration-dependent): significantly attenuated
wound closure induced by rhIL-4 ([3]; rhIL-4, concentration-dependent): significantly attenuated
